Assay results as given in US12509439B2, “Anti-malarial agents” (UNIVERSITY OF KENTUCKY RESEARCH FOUNDATION, priority 2020, dated 2025).
pIC50: −log10 of the molar value.

Test system: P. falciparum transgenic reporter strain NF54-HGL
Test: Standard membrane feeding assay (transmission blocking, oocysts in mosquito midgut)
Assay type: cell-based
Details: Plasmodium falciparum, NF54, read-out: IC50, transmission of P. falciparum from infected blood into mosquitos (number of oocysts in the mosquito midgut)
Protocol: Standard Membrane Feeding Assays (SMFA) were performed using P. falciparum transgenic reporter strain NF54-HGL that expresses a firefly luciferase gene from an hsp70 promoter (Vos et al., 2015, Scientific Reports, 5). Stage V gametocytes were pre-incubated with test compound prior to mosquito feeding. Test compound is dissolved in DMSO to achieve a stock solution of 10 mM that was serially diluted in DMSO to achieve concentrations […] above the final test concentration. Subsequently, 10 μl of diluted compound in DMSO is then added to 990 μl pre-warmed RPMI 1640 medium supplemented with 367 μM hypoxanthine, 25 mM HEPES and 25 mM NaHCO3 (‘incomplete medium’). 40 μl of this intermediate dilution is added to 360 μl of parasite culture and incubated for 48 hrs at 37° C. in Eppendorf tubes, resulting in 0.1% final DMSO concentration. Hereafter, 300 μl of the gametocyte culture/compound mix is added to 180 μl of packed red blood cells and centrifuged for 20 seconds at 10,000×g. […] Mosquitoes are processed for luminescence measurements to determine relative oocyst intensities as described previously (Stone et al., 2014, Journal of Infectious Diseases, 5, 16). Data is analyzed by fitting a four-parameter logistic regression model using maximum likelihood to find the best fit as described previously (Dechering et al., 2017, Scientific Reports, 7, 1) as shown under FIG. 5.

`N#Cc1cc(NC(=O)[C@H]2c3ccccc3C(=O)N(CC(F)(F)F)[C@@H]2c2ccc(OC3CC3)nc2)ccc1F` (single isomer, unassigned) [(1a)] gave a pIC50 of 6.49.
